PubChem BioAssay (NCI)
Where “and” joins values, the source holds several entries; their conditions need not be identical. Equal values may be shown once.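 Cells were grown in 96-well plates and exposed to each compound for 48 hours at five concentrations; endpoints were interpolated linearly between bracketing concentrations, or set to the highest concentration if not reached. Abbreviation: GI50, concentration required for 50% inhibition of growth. The concentration for full growth arrest is given as TGI.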

Tests used:
Test in all cases: growth of human tumour cells (NCI), 48 h
HL-60(TB) leukemia = tested on: HL-60(TB) leukemia
M14 melanoma = tested on: M14 melanoma
OVCAR-4 ovarian = tested on: OVCAR-4 ovarian
SK-MEL-28 melanoma = tested on: SK-MEL-28 melanoma
IGROV1 ovarian = tested on: IGROV1 ovarian
SK-MEL-2 melanoma = tested on: SK-MEL-2 melanoma
SNB-19 CNS = tested on: SNB-19 CNS
T-47D breast = tested on: T-47D breast
BT-549 breast = tested on: BT-549 breast
HS 578T breast = tested on: HS 578T breast

| Structure (SMILES) | TGI (HL-60(TB) leukemia) | TGI (M14 melanoma) | TGI (OVCAR-4 ovarian) | TGI (SK-MEL-28 melanoma) | TGI (IGROV1 ovarian) | TGI (SK-MEL-2 melanoma) | TGI (SNB-19 CNS) | TGI (T-47D breast) [µM] | TGI (BT-549 breast) | TGI (HS 578T breast) | GI50 (HL-60(TB) leukemia) | GI50 (M14 melanoma) | GI50 (OVCAR-4 ovarian) | GI50 (SK-MEL-28 melanoma) | GI50 (IGROV1 ovarian) | GI50 (SK-MEL-2 melanoma) | GI50 (SNB-19 CNS) | GI50 (BT-549 breast) | GI50 (HS 578T breast) | GI50 (T-47D breast) [µM] |
| --- | --- | --- | --- | --- | --- | --- | --- | --- | --- | --- | --- | --- | --- | --- | --- | --- | --- | --- | --- | --- |
| COC(=O)c1cccn1C(=O)n1cccc1 | > 100 µM | > 100 µM | > 100 µM | > 100 µM | > 100 µM | > 100 µM | > 100 µM | – | – | – | – | – | – | – | – | – | – | – | – | – |
| Nc1nnnn1CCO | – | > 100 µM | > 100 µM | > 100 µM | > 100 µM | > 100 µM | > 100 µM | > 100 | > 100 µM | > 100 µM | – | – | – | – | – | – | – | – | – | – |
| O=C(CCN1CCN(c2ccccc2)CC1)N1CCc2c([nH]c3ccccc23)C1c1cccnc1 (centres undefined) | 33.6 µM | 31.2 µM | 33 µM | 29.1 µM | > 100 µM | 30.4 µM | 66.7 µM | – | – | – | – | – | – | – | – | – | – | – | – | – |
| CC(=O)OC[C@@H](COC(=O)/C=C/c1ccc(O)cc1)OC1OC(CO)C(O)C(O)C1O (some centres undefined) | > 100 µM | > 100 µM | > 100 µM | > 100 µM | > 100 µM | > 100 µM | > 100 µM | – | – | – | – | – | – | – | – | – | – | – | – | – |
| CCOC(=O)N1CCC(=O)C(CNC23CC4CC(CC(C4)C2)C3)C1 (centres undefined) | > 100 µM | – | 29 µM | 32.1 µM | – | > 100 µM | > 100 µM | – | – | – | – | – | – | – | – | – | – | – | – | – |
| C/C1=C/C(=O)O[C@@H]2C[C@@H](CC[C@H](C)/C=C\C=C\CC1)O[C@@](O)([C@@H]1CSC(=O)N1)C2 | > 10 µM | 3.75 µM | > 10 µM | 5.41 µM | 0.547 µM | > 10 µM | > 7.89 µM | – | > 2.59 µM | 0.512 µM | – | – | – | – | – | – | – | – | – | – |
| C[n+]1c2cc(N)ccc2cc2ccc(N)cc21 | 9.76 µM [middle of 4 runs] | 3.75 µM [middle of 4 runs] | – | 4.78 µM [middle of 4 runs] | – | 5 µM [middle of 4 runs] | 5.01 µM [middle of 4 runs] | – | 4.05 µM [middle of 4 runs] | 6.31 µM [middle of 4 runs] | 2.83 µM [middle of 4 runs] | 1.68 µM [middle of 4 runs] | 1.34 µM [middle of 4 runs] | 1.96 µM [middle of 4 runs] | 1.46 µM [middle of 4 runs] | 1.47 µM [middle of 4 runs] | 933 nM [middle of 4 runs] | 1.61 µM [middle of 4 runs] | 1.54 µM [middle of 4 runs] | – |
| NCCOCCOCCNc1nc(-c2ccccc2)nc(N2CCN(c3ccccn3)CC2)n1 | 26.5 µM | 5.31 µM | 26.3 µM | 13.8 µM | 34.4 µM | – | – | 30.3 | 24 µM | 41 µM | 9.47 µM | 2.16 µM | 13.4 µM | 3.9 µM | 18.2 µM | – | – | 11.6 µM | 15.4 µM | 11.7 |
| CC(=O)C1C(c2ccc(N(C)C)cc2)c2cc3c(cc2OC1(C)O)OCO3 (centres undefined) | 58.2 µM | > 100 µM | > 100 µM | > 100 µM | > 100 µM | > 100 µM | > 100 µM | – | – | – | – | – | – | – | – | – | – | – | – | – |
| Clc1ccc(-c2c3c(nn2-c2ccccn2)CCc2ccccc2-3)cc1Cl | – | > 100 µM | > 100 µM | > 100 µM | > 100 µM | > 100 µM | > 100 µM | > 100 | > 100 µM | > 100 µM | – | 34 µM | 39.8 µM | > 100 µM | > 100 µM | > 100 µM | > 100 µM | > 100 µM | > 100 µM | > 100 |
| O=C(c1ccccc1)C1OC12C(=O)Nc1c(Cl)cc(Cl)cc12 (centres undefined) | 36 µM | > 82.4 µM | > 39.9 µM | > 100 µM | > 100 µM | > 100 µM | > 100 µM | – | – | – | – | – | – | – | – | – | – | – | – | – |
| O=C(Nc1ccc(Cl)c(Cl)c1)Nc1c(Oc2ccc(Cl)c(Cl)c2)ccc(Cl)c1S(=O)(=O)O | – | > 100 µM | – | > 100 µM | – | – | > 100 µM | – | > 100 µM | 8.79 µM | – | 1.09 µM | – | 4.05 µM | – | – | 3.42 µM | 1.71 µM | 2.21 µM | – |
| CCC/C(=N\NC(=S)N1CC2CCC(CC2)C1)c1ccccn1 | – | 0.598 µM and 0.207 µM | 0.897 µM and 0.702 µM | 5.16 µM and 1.29 µM | 1.4 µM and 2.21 µM | – | 2.04 µM and 1.92 µM | 0.233 | 1.96 µM | 4.43 µM | – | 0.0142 µM | 0.119 µM | 0.0479 µM | 0.372 µM | 1.02 µM | 0.338 µM | – | – | – |
| Nc1nc2c(ncn2C2C=CC(CO)C2)c(=O)[nH]1 (centres undefined) | – | > 100 µM | > 100 µM | > 100 µM | > 100 µM | > 100 µM | > 100 µM | > 100 | > 100 µM | > 100 µM | – | – | – | – | – | – | – | – | – | – |
| CC12CCC3(OCCO3)C(OC(=O)c3ccccc3)=C1CCC21OCCO1 (centres undefined) | > 100 µM | > 100 µM | > 100 µM | > 100 µM | > 100 µM | – | > 100 µM | – | – | – | – | – | – | – | – | – | – | – | – | – |
| CCC[CH2][Sn]1([CH2]CCC)[O]CC(CN(C)Cc2ccccc2)[O]1 (centres undefined) | 2.08 µM | 7.76 µM | 23 µM | 26.5 µM | 30.5 µM | 15.9 µM | 25.2 µM | – | – | – | 0.473 µM | 2.45 µM | 10.7 µM | 13.3 µM | 14.8 µM | 4.27 µM | 12.6 µM | – | – | – |
| Cc1cccc(C)c1NC(=O)C1C(=O)N(c2c(C)cccc2C)C(=O)/C1=N\N (centres undefined) | > 100 µM | > 100 µM | > 100 µM | > 100 µM | > 100 µM | > 100 µM | > 100 µM | – | – | – | – | – | – | – | – | – | – | – | – | – |
| CN1C(=O)C2C3C=C4c5ccccc5N(c5ccccc5)C4(C2C1=O)[C@H]1C(=O)N(C)C(=O)[C@@H]31 (some centres undefined) | > 100 µM | > 100 µM | > 100 µM | > 100 µM | – | > 100 µM | > 100 µM | – | – | – | – | – | – | – | – | – | – | – | – | – |
| Oc1ccc2ccccc2c1N=Nc1ccsc1 | > 100 µM | > 100 µM | > 100 µM | > 100 µM | > 100 µM | > 100 µM | > 100 µM | – | – | – | – | – | – | – | – | – | – | – | – | – |
| CO/N=C(\C)c1ccc(Nc2cc(-c3ccccc3)nc3ccc(OC)cc23)cc1 | – | 4.77 µM | > 100 µM | > 100 µM | > 100 µM | > 100 µM | > 100 µM | > 100 | 21.4 µM | 9.44 µM | – | 2.35 µM | 7.81 µM | 29.4 µM | 4.56 µM | 6.27 µM | 5.97 µM | 5.61 µM | 3.5 µM | 33.7 |
